Data taken from patent US20240287022A1 (Merck Sharp & Dohme LLC, priority 2021, published 2024).

target: recombinant IL4I1 (Homo sapiens (Human), UniProt Q96RQ9); test: IL4I1 Enzymatic Assay (Amplex Red/HRP coupled H2O2 detection); format: biochemical; settings: 1 nM IL4I1, 1 mM each Phe/Tyr/Trp, four-hour pre-incubation, 120 minutes reaction, top compound concentration of 10000 nM
Summary of the method: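 Recombinant IL4I1 (1 nM final) was pre-incubated 4 h at ambient temperature with compound in 50 mM Hepes pH 7.0, 0.005% Tween20. Reaction ran 120 min with 1 mM each Phe/Tyr/Trp, 0.05 mM Amplex Red and 1 U/mL HRP. Resorufin fluorescence (544/590 nm) was read, and EC50 fitted from ten-point 1:3 titrations (top 10000 nM) by four-parameter regression.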

recombinant IL4I1, sequence (Q96RQ9 22-567): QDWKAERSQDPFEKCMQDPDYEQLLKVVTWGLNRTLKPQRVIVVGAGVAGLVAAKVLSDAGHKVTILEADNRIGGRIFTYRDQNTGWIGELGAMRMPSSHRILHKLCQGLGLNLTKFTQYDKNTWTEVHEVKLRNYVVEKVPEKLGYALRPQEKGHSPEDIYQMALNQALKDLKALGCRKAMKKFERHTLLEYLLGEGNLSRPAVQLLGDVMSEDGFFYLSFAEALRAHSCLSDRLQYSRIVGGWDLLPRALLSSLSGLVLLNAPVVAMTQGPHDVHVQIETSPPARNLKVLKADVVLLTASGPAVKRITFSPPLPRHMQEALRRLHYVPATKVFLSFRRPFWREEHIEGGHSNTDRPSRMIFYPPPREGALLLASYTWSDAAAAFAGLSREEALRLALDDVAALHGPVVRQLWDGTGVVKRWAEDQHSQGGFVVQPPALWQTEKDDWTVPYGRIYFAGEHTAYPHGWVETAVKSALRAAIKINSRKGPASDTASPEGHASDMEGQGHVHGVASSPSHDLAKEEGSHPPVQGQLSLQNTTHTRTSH

Compound	EC50 [nM]
Cc1c(Cc2ccccc2)c(=O)[nH]c2ccccc12 [Example 164, 3-Benzyl-4-methylquinolin-2(1H)-one]	10000
COc1ccc2[nH]c(=O)c(Cc3ccccc3)cc2c1 [Example 172, 3-benzyl-6-methoxyquinolin-2(1H)-one]	532
CC(C)(O)c1ccc2[nH]c(=O)c(Cc3ccccc3)cc2c1 [Example 173, 3-Benzyl-6-(2-hydroxypropan-2-yl)quinolin-2(1H)-one]	6840
N#Cc1ccc2[nH]c(=O)c(Cc3ccccc3)cc2c1 [Example 174, 3-Benzyl-2-oxo-1,2-dihydroquinoline-6-carbonitrile]	10000
O=c1[nH]c2c(CO)cccc2cc1Cc1cccc(OC(F)(F)F)c1 [Example 177, 8-(hydroxymethyl)-3-(3-(trifluoromethoxy)benzyl)quinolin-2(1H)-one]	1910
NCc1cccc2cc(Cc3cccc(OC(F)(F)F)c3)c(=O)[nH]c12 [Example 178, 8-(aminomethyl)-3-(3-(trifluoromethoxy)benzyl)quinolin-2(1H)-one]	99
CNCc1cccc2cc(Cc3cccc(OC(F)(F)F)c3)c(=O)[nH]c12 [Example 180, 8-((methylamino)methyl)-3-(3-(trifluoromethoxy)benzyl)quinolin-2(1H)-one]	105
CC(C)(O)c1ccc(Cc2cc3cnccc3[nH]c2=O)cc1Cl [Example 184, 3-(3-Chloro-4-(2-hydroxypropan-2-yl)benzyl)-1,6-naphthyridin-2(1H)-one]	15.3
O=C1NC(=O)c2cc(Cc3cc4ccccc4[nH]c3=O)ccc21 [Example 185, 5-((2-oxo-1,2-dihydroquinolin-3-yl)methyl)isoindoline-1,3-dione]	9.1
CC1(O)CN(C(=O)c2ccc(Cc3cc4ccccc4[nH]c3=O)cc2)C1 [compound 2, 3-(4-(3-hydroxy-3-methylazetidine-1-carbonyl)benzyl)-quinolin-2(1H)-one]	34.8
CC1(N)CN(c2ccc(Cc3cc4ccccc4[nH]c3=O)cc2)C1 [compound 60, 3-(4-(3-amino-3-methylazetidin-1-yl)benzyl)quinolin-2(1H)-one]	19.9
O=c1[nH]c2ccccc2cc1Cc1ccc(CC2CNC2)cc1 [compound 64, 3-(4-(azetidin-3-ylmethyl)benzyl)quinolin-2(1H)-one]	10.8
CC(=O)NCc1ccc(Cc2cc3ccccc3[nH]c2=O)c(Cl)c1 [compound 67, N-(3-chloro-4-((2-oxo-1,2-dihydroquinolin-3-yl)-methyl)benzyl)acetamide]	15.6

Stronger by EC50, values ahead:

EC50 [nM]	Compound
3.2	CC1(O)CC(c2ccc(Cc3cc4ccccc4[nH]c3=O)cc2)C1 (centres unmarked) [Example 161, 3-(4-(3-hydroxy-3-methylcyclobutyl)benzyl)quinolin-2(1H)-one]
5.4	Cn1cc2c(Cc3cc4cc(F)ccc4[nH]c3=O)cccc2n1 [Example 163, 6-fluoro-3-((2-methyl-2H-indazol-4-yl)methyl)quinolin-2(1H)-one]
6.2	Cc1cc(Cc2cc3ccccc3[nH]c2=O)ccc1CNS(C)(=O)=O [Example 165, N-(2-methyl-4-((2-oxo-1,2-dihydroquinolin-3-yl)methyl)benzyl)methanesulfonamide]
2.7	CC(=O)NCc1ccc(Cc2cc3ccccc3[nH]c2=O)cc1F [Example 166, N-(2-fluoro-4-((2-oxo-1,2-dihydroquinolin-3-yl)methyl)benzyl)acetamide]
4.9	CC(=O)NCc1ccc(Cc2cc3ccccc3[nH]c2=O)c(F)c1 [Example 167, N-(3-fluoro-4-((2-oxo-1,2-dihydroquinolin-3-yl)methyl)benzyl)acetamide]
3.4	CC(=O)NCc1ccc(Cc2cc3ccccc3[nH]c2=O)cc1C [Example 168, N-(2-methyl-4-((2-oxo-1,2-dihydroquinolin-3-yl)methyl)benzyl)acetamide]
2.3	CN1C(=O)COc2ccc(Cc3cc4ccccc4[nH]c3=O)cc21 [Example 169, 4-Methyl-6-((2-oxo-1,2-dihydroquinolin-3-yl)methyl)-2H-benzo[b][1,4]oxazin-3(4H)-one]
1	O=C1COc2c(Cl)cc(Cc3cc4ccccc4[nH]c3=O)cc2N1 [Example 170, 8-Chloro-6-((2-oxo-1,2-dihydroquinolin-3-yl)methyl)-2H-benzo[b][1,4]oxazin-3(4H)-one]
7	O=C1COc2ccc(Cc3cc4ccccc4[nH]c3=O)c(F)c2N1 [Example 171, 5-Fluoro-6-((2-oxo-1,2-dihydroquinolin-3-yl)methyl)-2H-benzo[b][1,4]oxazin-3(4H)-one]
7.7	Cn1c(=O)c(CC2CC2c2ccccc2)cc2ccccc21 (centres unmarked) [Example 175, 1-Methyl-3-((2-phenylcyclopropyl)methyl)quinolin-2(1H)-one]
1.4	O=C1COc2c(F)cc(Cc3cc4ccccc4[nH]c3=O)cc2N1 [Example 176, 8-Fluoro-6-((2-oxo-1,2-dihydroquinolin-3-yl)methyl)-2H-benzo[b][1,4]oxazin-3(4H)-one]
4.9	CC(C)(O)Cc1ccc(Cc2cc3ccccc3[nH]c2=O)cc1 [Example 179, 3-(4-(2-Hydroxy-2-methylpropyl)benzyl)quinolin-2(1H)-one]
2.5	O=C1CCC(c2ccc(Cc3cc4ccccc4[nH]c3=O)cc2Cl)N1 (centres unmarked) [Example 181, 3-(3-chloro-4-(5-oxopyrrolidin-2-yl)benzyl)quinolin-2(1H)-one]
7.3	O=c1[nH]c2ccccc2cc1Cc1ccc(C2COCC2O)cc1 (centres unmarked) [Example 182, 3-(4-(4-hydroxytetrahydrofuran-3-yl)benzyl)quinolin-2(1H)-one]
6	O=C1N(c2ccc(Cc3cc4cnccc4[nH]c3=O)cc2)CCC1(F)F [compound 62, 3-(4-(3,3-difluoro-2-oxopyrrolidin-1-yl)benzyl)-1,6-naphthyridin-2(1H)-one]
6.8	CC1(O)CC(c2ccc(Cc3cc4cnccc4[nH]c3=O)cc2)C1 (centres unmarked) [compound 162, 3-(4-(3-hydroxy-3-methylcyclobutyl)benzyl)-1,6-naphthyridin-2(1H)-one]
